Laboratory results as given in patent US20070196359A1, “Halosuccinimide biocide” (Minntech Corporation, priority 2006, published 2007).

Key:
[1] = Stability of the biocide solution over time, active ingredient by iodometric titration (FIG. 3); assay type: physicochemical
From the text: The NBS biocide solution included about 1.0% NBS, 0.19% surfactant L-44 and was at a pH of about 3. The NCS biocide solution included about 1.0% NCS, 0.19% surfactant and was at a pH of about 3.

M. terrae mycobacteria = experiment: Efficacy against mycobacteria (FIG. 2); assay type: cell-based; conditions: for time to total kill of mycobacteria: pH 7.4
Description: The NCS biocide solution included about 1% NCS, was buffered at a pH of about 4 and was tested at 20° C. The NBS biocide solution included about 1% NBS, was buffered at a pH of about 3 and was tested at 20° C. Each solution produced a total kill corresponding to a 6 log reduction of the mycobacteria.

[2] = test system: B. subtilis bacterial spores; experiment: Efficacy against bacterial endospores (FIG. 1); assay type: cell-based
Description: The NCS biocide solution included about 1% NCS and was buffered at a pH of about 4. The NBS biocide solution included about 1% NBS and was buffered at pH about 3. […] In the case of NCS, a total kill corresponding to a 6 log reduction occurred over a period of approximately 30 minutes. In the case of NBS, a total kill corresponding to a 6 log reduction occurred over a period of approximately 60 minutes.

[3] = about 1% NCS, buffered at pH about 4, 20° C
[4] = about 1% NBS, buffered at pH about 3, 20° C

SMILES	stability over time compared to NCS alone ([1]; about 1.0% NCS, 0.19% surfactant, pH about 3, 4.8% succinimide added)	time to total kill (M. terrae mycobacteria; [3])	total kill, log reduction of the mycobacteria (M. terrae mycobacteria; [3])	time to total kill of mycobacteria (M. terrae mycobacteria)	period to total kill (6 log reduction) [2, 3]	total kill, log reduction in the bacteria [2, 3]	stability over time ([1]; about 1.0% NBS, 0.19% surfactant L-44, pH about 3, increasing amounts of succinimide added, best at 9.0%)	time to total kill (M. terrae mycobacteria; [4])	total kill, log reduction of the mycobacteria (M. terrae mycobacteria; [4])	period to total kill (6 log reduction) [2, 4]	total kill, log reduction in the bacteria [2, 4]
O=C1CCC(=O)N1Cl [NCS, N-chlorosuccinimide]	improved stability	about 30 seconds	6 log	about 90 seconds	approximately 30 minutes	6 log					
O=C1CCC(=O)N1Br [NBS, N-bromosuccinimide]				about 175 seconds			improved stability over time	about 30 seconds	6 log	approximately 60 minutes	6 log
